Experiments:
[1] = cited from earlier work
[2] = tested on: Staphylococcus epidermidis; assay: Disc diffusion antimicrobial susceptibility test, Staphylococcus epidermidis; type: cell-based
Procedure: (§1) The plates were incubated for 24 h at 37 °C.

[3] = DTG; cited from earlier work
Escherichia coli = assay: Disc diffusion antimicrobial susceptibility test, Escherichia coli; type: cell-based; parameters: key to Inhibition diameter: -: no growth of the organism
Procedure: as §1

[4] = pKa / pKB by potentiometric acid-base titration and formation constant log(KS); details: calculated from pKA of acid and pKB of base
Method in brief: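 Potentiometric acid-base titration used 0.1 M NaOH as titrant for pKA of acids. For ester hydrochlorides, aqueous HCl was added first, followed by dropwise titration with 5 mM titrant.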

Micrococcus Luteus = assay: Disc diffusion antimicrobial susceptibility test, Micrococcus luteus; type: cell-based
[5] = solution transferred to disc 25 mg cm^−3
[6] = solution transferred to disc 50 mg cm^−3
[7] = solution transferred to disc 100 mg cm^−3
[8] = solution transferred to disc 200 mg cm^−3
[9] = solution transferred to disc 400 mg cm^−3
[10] = solution transferred to disc 600 mg cm^−3
[11] = solution transferred to disc 800 mg cm^−3
[12] = solution transferred to disc 1000 mg cm^−3

CC(C)Cc1ccc(C(C)C(=O)O)cc1.CC(C)OC(=O)C(N)C(C)C (mixture of isomers) [[L-ValOiPr][IBU]]
Solubility in Phosphate Buffer pH = 5.4 ([1]; pH 5.4): 2.351 ± 0.027 [45] g dm^−3
Solubility in Phosphate Buffer pH = 5.4, as active substance ([1]; pH 5.4): 1.326 ± 0.027 [45] gAS dm^−3
Solubility in Phosphate Buffer pH = 7.4 ([1]; pH 7.4): 4.998 ± 0.018 [45] g dm^−3
Solubility in Phosphate Buffer pH = 7.4, as active substance ([1]; pH 7.4): 2.821 ± 0.018 [45] gAS dm^−3
Inhibition diameter [2, 5]: 7.3 ± 0.2 mm
Inhibition diameter [2, 6]: 10.4 ± 0.1 mm
Inhibition diameter [2, 7]: 12.8 ± 0.2 mm
Inhibition diameter [2, 8]: 13.2 ± 0.2 mm
Inhibition diameter [2, 9]: 16.3 ± 0.3 mm
Inhibition diameter [2, 10]: 17.7 ± 0.3 mm
Inhibition diameter [2, 11]: 18.4 ± 0.2 mm
Inhibition diameter [2, 12]: 18.9 ± 0.3 mm
TDTGmax, maximum decomposition temperature [3]: 215.5 [50] °C
Inhibition diameter (Escherichia coli; [5]): -
Inhibition diameter (Escherichia coli; [6]): -
Inhibition diameter (Escherichia coli; [7]): -
Inhibition diameter (Escherichia coli; [8]): 6.2 ± 0.1 mm
Inhibition diameter (Escherichia coli; [9]): 6.3 ± 0.2 mm
Inhibition diameter (Escherichia coli; [10]): 6.8 ± 0.5 mm
Inhibition diameter (Escherichia coli; [12]): 7.1 ± 0.3 mm
Log(KS) formation constant [4]: 5.56
Inhibition diameter (Micrococcus Luteus; [5]): 8.4 ± 0.3 mm
Inhibition diameter (Micrococcus Luteus; [6]): 9.1 ± 0.2 mm
Inhibition diameter (Micrococcus Luteus; [7]): 9.6 ± 0.1 mm
Inhibition diameter (Micrococcus Luteus; [8]): 10.5 ± 0.2 mm
Inhibition diameter (Micrococcus Luteus; [9]): 11.2 ± 0.2 mm
Inhibition diameter (Micrococcus Luteus; [10]): 11.7 ± 0.2 mm
Inhibition diameter (Micrococcus Luteus; [11]): 12.6 ± 0.3 mm
Inhibition diameter (Micrococcus Luteus; [12]): 13.2 ± 0.2 mm

Source: paper PMC9693575, “Isopropyl Amino Acid Esters Ionic Liquids as Vehicles for Non-Steroidal Anti-Inflammatory Drugs in Potential Topical Drug Delivery Systems with Antimicrobial Activity” (International Journal of Molecular Sciences, 2022)
